The record followed here is ChEMBL document CHEMBL5678818, “Discovery of potent SOS1 inhibitors that block RAS activation via disruption of the RAS-SOS1 interaction” (Proc Natl Acad Sci U S A, 2019).

The target in assay [1] is Misshapen-like kinase 1 (Homo sapiens) (UniProt Q8N4C8). Description: Inhibition of MINK (unknown origin) assessed as residual activity at 100 nM by KINOMEscan analysis relative to control.
Assay [2] deals with T1, Serine/threonine-protein kinase Nek1 (Homo sapiens) (UniProt Q96PY6).
T1 sequence (whole entry): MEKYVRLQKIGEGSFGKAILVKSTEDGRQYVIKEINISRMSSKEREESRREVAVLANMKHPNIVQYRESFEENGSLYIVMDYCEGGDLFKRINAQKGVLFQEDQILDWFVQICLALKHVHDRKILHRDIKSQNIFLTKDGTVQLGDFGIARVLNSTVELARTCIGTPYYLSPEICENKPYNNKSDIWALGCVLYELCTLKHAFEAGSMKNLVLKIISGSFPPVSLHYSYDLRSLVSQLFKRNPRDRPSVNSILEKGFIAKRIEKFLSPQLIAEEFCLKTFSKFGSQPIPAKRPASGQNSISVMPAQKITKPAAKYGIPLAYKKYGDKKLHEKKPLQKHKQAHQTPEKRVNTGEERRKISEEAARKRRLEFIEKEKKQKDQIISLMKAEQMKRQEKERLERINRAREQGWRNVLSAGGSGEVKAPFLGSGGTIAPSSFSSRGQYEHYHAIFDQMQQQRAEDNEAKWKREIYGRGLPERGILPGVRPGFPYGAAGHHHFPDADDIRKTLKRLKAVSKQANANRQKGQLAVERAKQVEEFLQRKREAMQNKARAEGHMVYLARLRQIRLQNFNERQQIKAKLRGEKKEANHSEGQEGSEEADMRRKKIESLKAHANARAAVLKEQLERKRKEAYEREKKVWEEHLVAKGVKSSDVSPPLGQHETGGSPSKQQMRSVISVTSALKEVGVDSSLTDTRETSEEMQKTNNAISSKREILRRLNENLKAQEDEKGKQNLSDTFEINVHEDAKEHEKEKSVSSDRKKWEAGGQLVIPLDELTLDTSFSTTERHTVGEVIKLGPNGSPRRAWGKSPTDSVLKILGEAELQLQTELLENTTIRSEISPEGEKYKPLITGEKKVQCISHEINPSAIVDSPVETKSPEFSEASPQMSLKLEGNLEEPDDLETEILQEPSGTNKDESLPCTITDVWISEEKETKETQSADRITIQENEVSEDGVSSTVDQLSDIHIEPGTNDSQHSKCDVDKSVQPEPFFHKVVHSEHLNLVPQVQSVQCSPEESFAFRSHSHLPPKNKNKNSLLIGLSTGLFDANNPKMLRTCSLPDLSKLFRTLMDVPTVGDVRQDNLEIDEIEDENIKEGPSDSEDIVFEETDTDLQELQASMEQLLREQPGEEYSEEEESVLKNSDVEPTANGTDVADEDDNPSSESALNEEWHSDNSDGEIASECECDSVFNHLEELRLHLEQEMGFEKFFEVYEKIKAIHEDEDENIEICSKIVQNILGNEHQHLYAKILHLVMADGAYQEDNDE
Description: Inhibition of NEK1 (unknown origin) assessed as residual activity at 100 nM by KINOMEscan analysis relative to control.

For assay [3], the target named is Serine/threonine-protein kinase PAK 5 (Homo sapiens) (UniProt Q9P286). Description: Inhibition of PAK7 (unknown origin) assessed as residual activity at 100 nM by KINOMEscan analysis relative to control.
Serine/threonine-protein kinase PAK 5 (Homo sapiens), sequence (Q9P286 whole entry, looked up): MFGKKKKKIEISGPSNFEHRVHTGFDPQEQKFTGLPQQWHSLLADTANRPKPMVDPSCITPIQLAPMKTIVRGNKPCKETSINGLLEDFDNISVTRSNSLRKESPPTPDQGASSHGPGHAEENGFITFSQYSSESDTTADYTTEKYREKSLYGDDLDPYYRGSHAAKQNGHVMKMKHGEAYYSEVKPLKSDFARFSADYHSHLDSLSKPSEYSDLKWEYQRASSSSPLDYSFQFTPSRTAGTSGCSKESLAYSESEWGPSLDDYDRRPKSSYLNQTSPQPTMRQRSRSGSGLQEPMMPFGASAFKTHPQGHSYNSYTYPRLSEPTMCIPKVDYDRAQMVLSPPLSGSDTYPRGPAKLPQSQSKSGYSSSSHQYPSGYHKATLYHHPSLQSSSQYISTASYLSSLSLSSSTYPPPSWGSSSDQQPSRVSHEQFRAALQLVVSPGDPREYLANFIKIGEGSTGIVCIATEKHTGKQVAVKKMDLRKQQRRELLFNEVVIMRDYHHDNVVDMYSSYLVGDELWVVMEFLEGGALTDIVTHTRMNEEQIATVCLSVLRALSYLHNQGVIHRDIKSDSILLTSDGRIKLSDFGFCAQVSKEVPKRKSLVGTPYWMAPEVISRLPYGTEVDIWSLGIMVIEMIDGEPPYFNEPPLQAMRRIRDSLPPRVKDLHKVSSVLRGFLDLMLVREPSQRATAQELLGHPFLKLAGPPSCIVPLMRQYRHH
For assay [4], the target named is T2, Serine/threonine-protein kinase Sgk2 (Homo sapiens) (UniProt Q9HBY8).
T2 sequence (whole entry): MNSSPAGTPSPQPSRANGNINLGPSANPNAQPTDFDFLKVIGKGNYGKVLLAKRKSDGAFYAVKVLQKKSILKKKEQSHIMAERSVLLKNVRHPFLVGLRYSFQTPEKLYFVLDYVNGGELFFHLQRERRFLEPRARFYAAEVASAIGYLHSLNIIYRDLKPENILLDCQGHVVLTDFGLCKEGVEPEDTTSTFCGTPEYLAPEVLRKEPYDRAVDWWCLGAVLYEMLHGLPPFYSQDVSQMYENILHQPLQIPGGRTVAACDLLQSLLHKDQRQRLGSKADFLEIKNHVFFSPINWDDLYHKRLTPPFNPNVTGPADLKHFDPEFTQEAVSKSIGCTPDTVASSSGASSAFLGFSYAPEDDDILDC
Description: Inhibition of SGK2 (unknown origin) assessed as residual activity at 100 nM by KINOMEscan analysis relative to control.

Assay [5] has as its target T3, Serine/threonine-protein kinase TNNI3K (Homo sapiens) (UniProt Q59H18).
T3 sequence (whole entry): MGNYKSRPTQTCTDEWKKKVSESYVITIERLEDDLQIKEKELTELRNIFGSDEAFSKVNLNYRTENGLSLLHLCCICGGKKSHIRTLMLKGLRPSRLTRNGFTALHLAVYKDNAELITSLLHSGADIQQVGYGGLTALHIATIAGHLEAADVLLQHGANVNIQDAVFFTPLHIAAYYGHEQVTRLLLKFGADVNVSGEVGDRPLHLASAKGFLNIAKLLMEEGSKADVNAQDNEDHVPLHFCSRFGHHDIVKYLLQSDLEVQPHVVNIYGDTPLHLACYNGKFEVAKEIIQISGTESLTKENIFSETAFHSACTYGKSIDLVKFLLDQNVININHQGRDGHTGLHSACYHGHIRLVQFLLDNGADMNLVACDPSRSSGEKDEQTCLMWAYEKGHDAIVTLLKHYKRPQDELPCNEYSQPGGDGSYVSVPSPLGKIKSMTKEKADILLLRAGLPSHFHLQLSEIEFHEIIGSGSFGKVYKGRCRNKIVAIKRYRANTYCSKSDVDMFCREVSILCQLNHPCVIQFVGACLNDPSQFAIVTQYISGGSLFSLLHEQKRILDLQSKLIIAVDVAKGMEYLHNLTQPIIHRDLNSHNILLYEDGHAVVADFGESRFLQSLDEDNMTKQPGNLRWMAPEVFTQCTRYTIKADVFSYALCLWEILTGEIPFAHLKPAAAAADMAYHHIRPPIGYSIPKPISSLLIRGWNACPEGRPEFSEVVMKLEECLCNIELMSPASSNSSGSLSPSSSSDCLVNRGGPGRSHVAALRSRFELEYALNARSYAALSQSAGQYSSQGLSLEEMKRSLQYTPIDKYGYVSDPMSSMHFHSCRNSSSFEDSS
Description: Inhibition of TNNI3K (unknown origin) assessed as residual activity at 100 nM by KINOMEscan analysis relative to control.

Molecules are shown by their SMILES.

Misshapen-like kinase 1 (Homo sapiens), sequence (Q8N4C8 whole entry, looked up): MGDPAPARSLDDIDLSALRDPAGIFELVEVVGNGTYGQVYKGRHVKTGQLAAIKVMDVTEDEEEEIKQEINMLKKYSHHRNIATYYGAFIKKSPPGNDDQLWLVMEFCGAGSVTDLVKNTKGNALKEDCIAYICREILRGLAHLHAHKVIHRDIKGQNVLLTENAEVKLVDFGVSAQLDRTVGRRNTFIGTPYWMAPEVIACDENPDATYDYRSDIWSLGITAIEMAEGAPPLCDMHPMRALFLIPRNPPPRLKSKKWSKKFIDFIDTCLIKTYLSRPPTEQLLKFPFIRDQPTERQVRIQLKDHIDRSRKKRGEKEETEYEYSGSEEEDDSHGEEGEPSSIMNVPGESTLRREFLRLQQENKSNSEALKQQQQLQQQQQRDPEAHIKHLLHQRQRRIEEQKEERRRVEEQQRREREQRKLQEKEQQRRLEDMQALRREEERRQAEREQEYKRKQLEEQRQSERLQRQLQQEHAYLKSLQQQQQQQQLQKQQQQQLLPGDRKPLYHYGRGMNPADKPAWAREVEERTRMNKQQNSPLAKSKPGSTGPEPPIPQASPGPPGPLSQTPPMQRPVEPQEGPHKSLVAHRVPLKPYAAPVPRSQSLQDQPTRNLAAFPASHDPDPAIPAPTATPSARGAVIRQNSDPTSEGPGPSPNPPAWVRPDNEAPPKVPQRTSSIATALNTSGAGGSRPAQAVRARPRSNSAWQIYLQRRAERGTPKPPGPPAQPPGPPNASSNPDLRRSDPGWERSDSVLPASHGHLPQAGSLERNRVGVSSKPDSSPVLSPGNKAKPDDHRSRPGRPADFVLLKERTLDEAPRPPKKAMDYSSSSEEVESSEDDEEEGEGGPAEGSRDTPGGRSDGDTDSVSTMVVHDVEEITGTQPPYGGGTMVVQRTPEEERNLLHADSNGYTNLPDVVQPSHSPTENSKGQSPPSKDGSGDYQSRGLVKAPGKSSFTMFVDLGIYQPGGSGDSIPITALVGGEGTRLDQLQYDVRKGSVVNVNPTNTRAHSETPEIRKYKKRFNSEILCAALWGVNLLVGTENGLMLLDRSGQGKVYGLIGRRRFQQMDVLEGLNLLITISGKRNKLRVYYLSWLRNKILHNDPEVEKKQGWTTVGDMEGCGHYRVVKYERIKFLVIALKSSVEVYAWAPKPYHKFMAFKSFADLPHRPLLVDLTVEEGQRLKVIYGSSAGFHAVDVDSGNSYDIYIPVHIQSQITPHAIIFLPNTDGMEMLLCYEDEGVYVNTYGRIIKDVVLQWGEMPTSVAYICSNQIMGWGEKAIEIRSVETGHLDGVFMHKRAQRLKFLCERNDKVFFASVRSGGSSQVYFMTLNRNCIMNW

Turning to `COc1cc2ncnc(N[C@H](C)c3cccc4ccccc34)c2cc1OC`, the Activity was determined as 77% in assay [1]; 100% in assay [2]; 100% in assay [3]; 97% in assay [4]; 85% in assay [5].
